# In article PMC6048268, “Resveratrol Inhibits Key Steps of Steroid Metabolism in a Human Estrogen-Receptor Positive Breast Cancer Model: Impact on Cellular Proliferation” (Frontiers in Pharmacology, 2018):
# Where “and” joins values, the source holds several entries; their conditions need not be identical. Identical values can stand only once. Like-named read-outs stand apart in the source and are kept apart here.
# Columns and labels:
# [1] = system: steroid metabolism in MCF-7 cells; experiment: Inhibition of steroid metabolism by RES in MCF-7 cells (LC–HRMS); conditions: for formation rate in the presence of RES: 48 h
# Method: (§1) Briefly, cartridges were preconditioned with 2 × 1.0 ml acetonitrile and 3 × 1.0 ml ammonium acetate buffer (10 mM, pH = 5.0), and the samples were loaded onto the columns. After washing with 1 × 1.0 ml ammonium acetate buffer (10 mM, pH = 5.0) and 2 × 1.0 ml acetonitrile/ammonium acetate buffer (10 mM, pH 5.0) 10:90 (v/v), the analytes were eluted using 2 × 650 μl acetonitrile/ammonium acetate buffer (10 mM, pH = 5.0) 95:5 (v/v) and evaporated until dry. Subsequently, samples were reconstituted in 270 μl acetonitrile/ammonium acetate buffer (10 mM, pH = 5.0) 25:75 (v/v) and stored at -80°C until further LC–HRMS analysis.
# (§2) After media collection, cell monolayers were washed five times with 2.0 ml DPBS, detached using 400 μl TrypLE® solution (37°C, 5 min), mixed with 600 μl DPBS and transferred into sample vials. Aliquots of these suspensions (100 μl each) were diluted and counted using the Casy® TT Cell Counter to determine the exact number of cells per sample well. The remaining cell suspensions (900 μl each) were gently centrifuged (1000 rpm, 8 min), and the supernatants were discarded. The cell pellets were subsequently resuspended in 100 μl aqueous ammonium acetate buffer (10 mM, pH = 5.0) and lysed by five freeze-thaw-cycles in liquid nitrogen (3 min each), followed by thawing at ambient temperature. Ammonium acetate buffer (1000 μl) was added, and the suspensions were centrifuged (14000 rpm, 5 min). Subsequently, the supernatants were concentrated using the same SPE protocol as described above. All processed samples were then stored at -80°C until further LC–HRMS analysis. For each condition, three biologically independent experiments were performed; the reported values represent the overall means ± SD of all values.
# (§3) LC was performed with an UltiMate 3000 RSLC-series system coupled to a maXis HD ESI-Qq-TOF mass spectrometer (Bruker Corporation, Bremen, Germany). A Phenomenex Luna® 3 μm C18(2) 100 Å LC column (250 mm × 4.6 mm I.D.; Phenomenex, Inc., Torrance, CA, United States), preceded by a Hypersil® BDS-C18 guard column (5 μm, 10 mm × 4.6 mm I.D.; Thermo Fisher Scientific, Inc.) was used for the separation of the analytes at a flow rate of 1.0 ml/min and a temperature of 43°C. […] The ESI ion source settings were as follows: capillary voltage: -4.5 kV; dry gas flow rate: 8.0 l/min N2; nebulizer: 1.0 bar N2; and dry temperature: 200°C. The ion transfer parameters were set to 400 Vpp funnel RF and 300 Vpp multipole RF, the quadrupole ion energy was 8.0 eV, and the collision cell parameters were as follows: collision RF, 1100 Vpp; collision energy, 10.0 eV; transfer time, 38 μs; and pre-pulse storage, 18 μs. In the range of m/z 150–500, full-scan mass spectra were recorded.
# (§4) The modes of inhibition were subsequently determined from Lineweaver–Burk plots, and the corresponding Ki values were calculated from Dixon plots using GraphPad Prism 6.0.
# MDA-MB-231 cells = conditions: for Km / Vmax: MDA-MB-231, precursor DHEA or E1 0–100 nM, Michaelis–Menten; for mean formation rate: MDA-MB-231, 100 nM DHEA
# Method: as §1, §2, §3, §4
# MCF-7 cells = conditions: for Vmax: MCF-7, precursor DHEA or E1 0–100 nM, Michaelis–Menten; for mean formation rate: MCF-7, 100 nM DHEA
# Method: as §1, §2, §3, §4
# [2] = MCF-7, 100 nM DHEA + 100 μM RES
Compound,"Km ([1]; MCF-7, 0 μM RES)","Vmax ([1]; MCF-7, 0 μM RES)","Km ([1]; MCF-7, 5 μM RES)","Vmax ([1]; MCF-7, 5 μM RES)","Km ([1]; MCF-7, 10 μM RES)","Vmax ([1]; MCF-7, 10 μM RES)","Km ([1]; MCF-7, 25 μM RES)","Vmax ([1]; MCF-7, 25 μM RES)","Km ([1]; MCF-7, 50 μM RES)","Vmax ([1]; MCF-7, 50 μM RES)","Km ([1]; MCF-7, 100 μM RES)","Vmax ([1]; MCF-7, 100 μM RES)",Km (MDA-MB-231 cells; 48 h),Vmax (MDA-MB-231 cells; 48 h),Vmax (MCF-7 cells; 48 h),mean formation rate (MDA-MB-231 cells; 48 h),mean formation rate (MCF-7 cells; 48 h),"formation rate (MDA-MB-231 cells; MDA-MB-231, 100 nM E1, 48 h)","formation rate (MCF-7 cells; MCF-7, 100 nM E1, 48 h)",also measured
"C[C@]12CC[C@@H]3c4ccc(O[C@@H]5O[C@H](C(=O)O)[C@@H](O)[C@H](O)[C@H]5O)cc4CC[C@H]3[C@@H]1CC[C@@H]2O [E2-G, 17β-estradiol-3-O-(β-D-glucuronide)]",0.123 ± 0.0084 µM,7.29 ± 0.36 fmol/10^6 cells/h,0.135 ± 0.0059 µM,7.00 ± 0.20 fmol/10^6 cells/h,0.136 ± 0.006 µM,4.98 ± 0.14^∗ fmol/10^6 cells/h,0.132 ± 0.008 µM,2.60 ± 0.12^∗ fmol/10^6 cells/h,0.126 ± 0.0132 µM,1.51 ± 0.11^∗ fmol/10^6 cells/h,0.132 ± 0.0039 µM,0.77 ± 0.02^∗ fmol/10^6 cells/h,0.0879 ± 0.0322 µM,0.33 ± 0.07 fmol/10^6 cells/h,7.29 ± 1.36 fmol/10^6 cells/h and 7.29 ± 1.36^∗ fmol/10^6 cells/h,,,,,"formation rate (MDA-MB-231 cells; human, 48 h, 100 nM): 0.18 ± 0.02 fmol/10^6 cells/h; formation rate (MCF-7 cells; human, 48 h, 100 nM): 3.23 ± 0.45 fmol/10^6 cells/h"
"C[C@]12CC[C@H](OS(=O)(=O)O)CC1=CC[C@@H]1[C@@H]2CC[C@]2(C)C(=O)CC[C@@H]12 [DHEA-S, dehydroepiandrosterone-3-O-sulfate]",0.329 ± 0.0522 µM,2873.0 ± 57.4 fmol/10^6 cells/h,0.312 ± 0.0719 µM,2766.2 ± 53.9 fmol/10^6 cells/h,0.324 ± 0.0537 µM,2280.1 ± 81.4^∗ fmol/10^6 cells/h,0.404 ± 0.0931 µM,1797.6 ± 48.9^∗ fmol/10^6 cells/h,0.403 ± 0.0347 µM,993.5 ± 74.8^∗ fmol/10^6 cells/h,0.385 ± 0.0466 µM,522.5 ± 54.8^∗ fmol/10^6 cells/h,0.0554 ± 0.0205 µM,0.22 ± 0.04 fmol/10^6 cells/h,2873.0 ± 327.4 fmol/10^6 cells/h and 2873.0 ± 527.4 fmol/10^6 cells/h and 2873.0 ± 327.4^∗ fmol/10^6 cells/h,0.14 ± 0.02 fmol/10^6 cells/h,870.0 ± 79.1 fmol/10^6 cells/h,,,
"C[C@]12CC[C@@H]3c4ccc(O)cc4CC[C@H]3[C@@H]1CC[C@@H]2O [E2, 17β-estradiol]",0.169 ± 0.0117 µM,628.6 ± 72.0 fmol/10^6 cells/h,0.146 ± 0.0156 µM,816.4 ± 76.6^∗ fmol/10^6 cells/h,0.155 ± 0.0097 µM,1001.4 ± 43.0^∗ fmol/10^6 cells/h,0.153 ± 0.0136 µM,1079.8 ± 71.4^∗ fmol/10^6 cells/h,0.172 ± 0.0143 µM,1247.3 ± 56.2^∗ fmol/10^6 cells/h,0.174 ± 0.012 µM,1302.2 ± 64.6^∗ fmol/10^6 cells/h,0.174 ± 0.0941 µM,703.0 ± 164.5 fmol/10^6 cells/h,628.6 ± 62.0 fmol/10^6 cells/h,,,258.9 ± 25.1 fmol/10^6 cells/h,233.9 ± 13.4 fmol/10^6 cells/h,"formation rate in the presence of RES ([1]; MCF-7, 100 nM E1 + 100 μM RES): 471.5 ± 43.6 fmol/10^6 cells/h"
"C[C@]12CC[C@@H]3c4ccc(OS(=O)(=O)O)cc4CC[C@H]3[C@@H]1CCC2=O [E1-S, estrone-3-O-sulfate]",0.102 ± 0.0129 µM,30.4 ± 0.5 fmol/10^6 cells/h,0.094 ± 0.012 µM,4.51 ± 0.33^∗ fmol/10^6 cells/h,0.101 ± 0.0086 µM,2.54 ± 0.21^∗ fmol/10^6 cells/h,0.12 ± 0.0155 µM,1.23 ± 0.11^∗ fmol/10^6 cells/h,0.109 ± 0.0041 µM,0.57 ± 0.02^∗ fmol/10^6 cells/h,0.105 ± 0.009 µM,0.28 ± 0.01^∗ fmol/10^6 cells/h,0.12 ± 0.0681 µM,1.08 ± 0.38 fmol/10^6 cells/h,30.4 ± 2.5 fmol/10^6 cells/h and 30.4 ± 2.5^∗ fmol/10^6 cells/h,,,0.49 ± 0.07 fmol/10^6 cells/h,15.1 ± 0.8 fmol/10^6 cells/h,
"C[C@]12CC[C@@H]3c4ccc(O)cc4CC[C@H]3[C@@H]1C[C@@H](O)[C@@H]2O [E3, 16α-hydroxy-17β-estradiol]",,,,,,,,,,,,,,,,,,below the LLOQ,0.57 ± 0.06 fmol/10^6 cells/h,
"C[C@]12CCC(=O)C=C1CC[C@@H]1[C@@H]2CC[C@]2(C)C(=O)CC[C@@H]12 [AD, 4-androstene-3,17-dione]",0.115 ± 0.0096 µM,147.4 ± 13.1 fmol/10^6 cells/h,0.104 ± 0.0104 µM,148.5 ± 9.4 fmol/10^6 cells/h,0.102 ± 0.0079 µM,172.6 ± 7.7^∗ fmol/10^6 cells/h,0.112 ± 0.0107 µM,242.0 ± 14.4^∗ fmol/10^6 cells/h,0.106 ± 0.0042 µM,295.3 ± 9.4^∗ fmol/10^6 cells/h,0.0996 ± 0.0082 µM,328.8 ± 12.9^∗ fmol/10^6 cells/h,0.126 ± 0.0366 µM,1994.0 ± 364.5 fmol/10^6 cells/h,147.4 ± 8.1^∗ fmol/10^6 cells/h,888.9 ± 60.1 fmol/10^6 cells/h,68.5 ± 11.1 fmol/10^6 cells/h,,,"formation rate in the presence of RES [1, 2]: 165.1 ± 18.7 fmol/10^6 cells/h"
"C[C@]12CC[C@H]3[C@@H](CCC4=CC(=O)CC[C@@]43C)[C@@H]1CC[C@@H]2O [T, testosterone]",0.107 ± 0.0063 µM,9.95 ± 0.42 fmol/10^6 cells/h,0.107 ± 0.0059 µM,,0.107 ± 0.0038 µM,18.4 ± 0.7^∗ fmol/10^6 cells/h,0.106 ± 0.0024 µM,26.7 ± 0.4^∗ fmol/10^6 cells/h,0.106 ± 0.004 µM,35.9 ± 0.8^∗ fmol/10^6 cells/h,0.103 ± 0.0048 µM,39.7 ± 1.1^∗ fmol/10^6 cells/h,0.0563 ± 0.0214 µM,91.2 ± 15.9 fmol/10^6 cells/h,9.96 ± 1.42^∗ fmol/10^6 cells/h,57.1 ± 6.2 fmol/10^6 cells/h,4.78 ± 0.38 fmol/10^6 cells/h,,,"formation rate in the presence of RES [1, 2]: 19.4 ± 1.6 fmol/10^6 cells/h"
